PubChem BioAssay AID602211 (Sanford-Burnham Center for Chemical Genomics, 2012)
Activity calls are given as the source filed them.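 The calls were made as follows: active = mean IC50 at or below 10 µM; inactive = the rest.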

Tested on: H9c2 cardiomyocytes, H2O2 protection, ATPLite viability, 2 h
Test: protection of H9c2 cardiomyocytes from H2O2 death, dose response, cell-based, ATPLite luminescence, set 2 (AID 602211);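 also: potency is for protection so actives keep ATP signal up against peroxide killing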

Row | Compound | IC50
1 | Cc1ccc(NC(=O)c2nc[nH]c2C(=O)NCCCCCCNC(=O)c2[nH]cnc2C(=O)Nc2ccc(C)cc2)cc1 | 3.93 µM
2 | COc1ccc(-c2cc(NC(C)=O)c3ncc(-c4ccc(OC)c(OC)c4)n3c2)cc1OC | > 79 µM (inactive)
3 | COc1ccnc(Oc2ccccc2)c1C(=O)N/C=N/OCc1ccc(F)cc1Cl | > 79 µM (inactive)
4 | CC(=O)Nc1ccc(C(=O)N/N=C/c2ccccc2OC(=O)c2ccc(Cl)cc2)cc1 | 13.6 µM (inactive)
5 | CCOc1ccccc1N1CC(O)=C(c2nc3ccccc3s2)C1=N | > 79 µM (inactive)
6 | COc1ccccc1CN(C(=O)CNC(=O)c1ccco1)C(C(=O)NCC1CCCO1)c1ccccc1 (stereo not drawn) | 9.67 µM
7 | O=C(CSc1ccc2nnc(-c3ccc(F)cc3)n2n1)N1CCCc2ccccc21 | 1.21 µM
8 | O=S(=O)(c1ccccc1)N1CCN(c2nc(-c3cccnc3)nc3ccccc23)CC1 | 4.54 µM
9 | CNC(=O)c1ccc(-c2sc3nc(N4CCOCC4)c4c(c3c2N)CCCC4)o1 | 11.6 µM (inactive)
10 | COc1cccc(-c2cnc3c(NC=O)cc(-c4cccc(NC(C)=O)c4)cn23)c1 | 5.98 µM
11 | NC(=O)c1nsc(C(=O)N(CCc2ccccc2)C(C(=O)NC2CCCC2)c2ccco2)c1N (stereo not drawn) | 11.3 µM (inactive)
12 | CCOC(=O)c1c2c3c(cccc3n(C)c1=O)C(=O)c1ccccc1-2 | 10.1 µM (inactive)
13 | CC(=O)Nc1ccc(S(=O)(=O)N(Cc2ccco2)Cc2cc3ccccc3[nH]c2=O)cc1 | > 79 µM (inactive)
14 | COc1ccc(-c2oc(=O)c3cc(OC)c(OC)cc3c2C#CCCO)cc1 | 6.71 µM
15 | O=C(CN1CCN(c2ccccn2)CC1)Nc1ccc([N+](=O)[O-])cc1C(=O)Nc1ccccc1F | 7.08 µM
16 | O=C(Nc1ccccc1)c1nc[nH]c1C(=O)NCCCCNC(=O)c1[nH]cnc1C(=O)Nc1ccccc1 | 2.04 µM
17 | CCOCCCNC(=O)CCC(=O)NNc1nc2ccccc2c2nc(-c3ccccc3)nn12 | 42.6 µM (inactive)
18 | CC(C)(C)C(=O)Nc1cccc(-c2nnc(-c3cccc(NC(=O)C(C)(C)C)c3)o2)c1 | 4.79 µM
19 | Cn1c(=O)n(CCc2ccccc2)c(=O)c2c1nc1n2CCCN1Cc1ccccc1 | > 79 µM (inactive)
20 | CNC(=O)COC(=O)/C=C/c1cn(-c2ccccc2)nc1-c1ccc(C)o1 | 6.31 µM
21 | O=C(c1cc2nc(-c3ccccc3)cc(-c3ccccc3)n2n1)N1CCN(C(=O)c2ccco2)CC1 | 1.25 µM
22 | COc1cccc(C(=O)Nc2c(C(N)=O)oc3ccccc23)c1 | 8.36 µM
23 | COc1ccc(-c2cc(C(=O)N(C)Cc3nc4ccccc4c(=O)[nH]3)c3ccccc3n2)cc1OC | 1.71 µM
24 | CN(C)C(=O)/C=C\c1cn(-c2ccccc2)nc1-c1ccc2c(c1)OCCO2 | > 79 µM (inactive)

Row | Compound | IC50
25 | COC(=O)c1cc(NC(=O)Nc2cc(OC)ccc2OC)cc(C(=O)OC)c1 | 22.3 µM (inactive)
26 | CCOC(=O)N1CCN(C(=O)CSc2nc3ccccc3c(=O)n2-c2ccccc2)CC1 | 18.8 µM (inactive)
27 | O=C(CN1C(=O)C2C3C=CC(C3)C2C1=O)Nc1nc(-c2ccccn2)cs1 (stereo not drawn) | 21.1 µM (inactive)
28 | Brc1ccc(-c2ccc(/C=N/Nc3nc(N4CCOCC4)nc(N4CCOCC4)n3)o2)cc1 | 3.61 µM
29 | CCOc1ccc2nc(NC(=O)CN3CCC(n4nnc5cc(F)ccc54)CC3)sc2c1 | 2.37 µM
30 | N#C/C(=C\Nc1ccc2c(c1)OCCO2)c1nc2ccccc2[nH]1 | 9.06 µM
31 | CCOc1ccccc1NC(=O)c1oc2ccccc2c1NC(=O)C1CCCO1 (stereo not drawn) | 4.13 µM
32 | COc1cc(C(=O)NCC(=O)N/N=C/c2ccc(-c3cccc([N+](=O)[O-])c3)o2)cc(OC)c1OC | 9.76 µM
33 | COCCNC(=O)COC(=O)c1ccc(OCC(=O)Nc2ccccc2OC)c(OC)c1 | 20.4 µM (inactive)
34 | COc1ccc(-c2csc(NC(=O)CCCc3nc4ccccc4c(=O)[nH]3)n2)cc1OC | 3.42 µM
35 | O=C(NCc1ccco1)C(c1ccccc1)N(C(=O)Cc1cccs1)c1ccccc1F (stereo not drawn) | 3.52 µM
36 | COc1ccc(NC(=O)c2cc(-c3ccccn3)nc3ccccc23)cc1S(=O)(=O)N(C)C | 2.46 µM
37 | CNC(=O)c1ccc(-c2sc3nc(N4CCOCC4)c4c(c3c2N)CC(C)(C)OC4)o1 | 6.13 µM
38 | CC(=O)NCCNc1nc2c(-c3ccccc3)nnn2c2ccccc12 | 2.56 µM
39 | COc1ccc(N(CC(=O)N/N=C/c2cccs2)S(=O)(=O)c2ccc(OC)c(OC)c2)cc1 | 10.3 µM (inactive)
40 | CCOc1ccc2[nH]c(=O)c(CN(Cc3nnnn3Cc3ccco3)C3CCCCC3)cc2c1 | > 79 µM (inactive)
41 | CC12CCC3C(CCC4CC(O)CCC43C)C1CC(O)C2 (stereo not drawn) | 3.41 µM
42 | CCCN1C(=O)c2cc(C(=O)Nc3cccc(C(C)=O)c3)ccc2C1Nc1cccc(C(C)=O)c1 (stereo not drawn) | > 79 µM (inactive)
43 | Cc1ccc(C(C(=O)NCc2ccccc2)N(Cc2ccco2)C(=O)c2snc(C(N)=O)c2N)o1 (stereo not drawn) | 1.8 µM
44 | CCC1(CC)NC(=O)N(CC(=O)OCC(=O)Nc2ccccc2[N+](=O)[O-])C1=O | 37.3 µM (inactive)
45 | Cc1nn(-c2ccccc2)c(C)c1/C=N/NC(=O)c1cc(C(C)(C)C)[nH]n1 | 26.5 µM (inactive)
46 | COC(=O)c1cc(NC(=O)c2cc3ccccc3o2)cc(C(=O)OC)c1 | 5.42 µM
47 | CCOC(=O)C1=C(CC)Nc2ccccc2N=C1NC(=O)c1ccc(S(=O)(=O)N(C)C)cc1 | 4.8 µM
48 | Brc1ccc(-c2nn3c(-c4ccccn4)nnc3s2)o1 | 27.4 µM (inactive)

Row | Compound | IC50
49 | COc1ccc2c(c1OC)C(=O)N1c3ccccc3C(=O)N(c3ccccc3)C21 (stereo not drawn) | 6.9 µM
50 | COc1ccc(-c2cc(NC=O)c3ncc(-c4ccccc4)n3c2)cc1OC | > 79 µM (inactive)
51 | COc1cc(C(=O)Nc2nc(-c3cccs3)cs2)cc(OC)c1OC | 1.78 µM
52 | C[C@H](NC(=O)c1nc[nH]c1C(=O)NCC(=O)OCc1ccccc1)c1ccccc1 | 1.6 µM
53 | CCOC(=O)c1cc(-c2nnc(-c3cc(OC)c(OC)c(OC)c3)o2)c(C)nc1C | 2.25 µM
54 | CC(C)(C)OC(=O)C[C@H]1C/C=C\C[C@H](CC(=O)N[C@H](CO)Cc2ccccc2)C(=O)N[C@H](Cc2ccccc2)COC1=O | 6.31 µM
55 | CC(C)(C)OC(=O)NCc1ccc(NC(=O)c2nc[nH]c2C(=O)NCCCCCCNC(=O)c2[nH]cnc2C(=O)Nc2ccc(CNC(=O)OC(C)(C)C)cc2)cc1 | > 79 µM (inactive)
56 | COc1ccc(OCC(O)Cn2c(Nc3cccc(C)c3)nc3c2c(=O)n(C)c(=O)n3C)cc1 (stereo not drawn) | 12.9 µM (inactive)
57 | O=C(c1cc(-c2cccnc2)nc2ccc(Br)cc12)N1CCN(c2ncccn2)CC1 | 3.6 µM
58 | COc1ccccc1-c1cc(NC=O)c2ncc(-c3cccc(C(C)=O)c3)n2c1 | 8.53 µM
59 | Cc1ccc(C=NNc2nc3c([nH]2)c(=O)n(C)c(=O)n3C)cc1 | 3.93 µM
60 | CCCn1nc(C(=O)Nc2nc(-c3ccccn3)cs2)c2ccccc2c1=O | 3.37 µM
61 | C=CCOC(=O)C1=C[C@H](c2cn(C(C)=O)c3ccccc23)C[C@H](OCc2ccc(CO)cc2)O1 | 9.81 µM
62 | COc1ccccc1OCC(=O)N/N=C/c1cccc2cccnc12 | 14.1 µM (inactive)
63 | O=C(c1ccccc1)c1ccc2nc(N3CCN(C(=O)c4ccco4)CC3)c3nncn3c2c1 | 9.31 µM
64 | COc1ccc(-c2cc(C(=O)NC(C)c3ccccn3)c3ccccc3n2)cc1OC (stereo not drawn) | 5.39 µM
65 | CCOC(=O)C1CCN(c2cc3c(cc2NC(=O)c2ccccc2)n(C)c(=O)n3C)CC1 | 5.18 µM
66 | Cc1ccccc1C(C(=O)NCc1ccccc1)N(Cc1ccco1)C(=O)c1ccccn1 (stereo not drawn) | > 79 µM (inactive)
67 | CC(=O)N1CCN(c2ccccc2NC(=O)c2ccc(-c3cccc([N+](=O)[O-])c3)o2)CC1 | 23.7 µM (inactive)
68 | COc1cc(/C=N\NC(=O)c2cccnc2)ccc1OC(=O)c1ccccc1Cl | 30 µM (inactive)
69 | CC(=NO)C1CCC2C3CCC4CC(=NO)CCC4(C)C3C(C)(O)CC12C (stereo not drawn) | > 79 µM (inactive)
70 | CCOC(=O)C1=C(COC(=O)/C=C/c2ccc(F)cc2)NC(=O)NC1C (stereo not drawn) | 5.54 µM
71 | CCOc1ccc(C(C(=O)NC2CCCC2)N(C(=O)c2snc(C(N)=O)c2N)c2cccc(O)c2)cc1 (stereo not drawn) | 3.28 µM
72 | CC(C)(C)OC(=O)C[C@@H]1C/C=C\C[C@@H](CC(=O)N[C@H](CO)Cc2ccccc2)C(=O)NC[C@@H](c2ccccc2)OC1=O | 17.6 µM (inactive)

Row | Compound | IC50
73 | CN(C(=O)c1sc2nc(N3CCOCC3)c3c(c2c1N)CCCC3)c1ccccc1 | 2.64 µM
74 | CCCCNC(=O)c1cn(-c2ccc(OCC)cc2)c(=O)c2cc(OC)c(OC)cc12 | > 79 µM (inactive)
75 | Cn1c2ccccc2c2cc(/C=N/NC(=O)c3cc(O)ccc3O)ccc21 | > 79 µM (inactive)
76 | CC(=O)Nc1cccc(-c2cc(NC=O)c3ncc(-c4cccc(C(C)=O)c4)n3c2)c1 | 22.1 µM (inactive)
77 | COCCN1Cc2cccc(C(=O)Nc3cccc(-c4nc5ccccc5[nH]4)c3)c2C1=O | 3.91 µM
78 | COc1cc(/C=C/C(=O)Nc2ccc3nc4n(c(=O)c3c2)CCCC4)cc(OC)c1OC | 13.3 µM (inactive)
79 | CCN(CC)c1ccc(C2C(C(=O)OC(C)C)C(=O)CC(C)(O)C2C(=O)OC(C)C)cc1 (stereo not drawn) | 7.99 µM
80 | c1cncc(-c2nc(NCC3COc4ccccc4O3)c3ccccc3n2)c1 (stereo not drawn) | > 79 µM (inactive)
81 | Cc1cc(NC(=O)c2cccs2)cc(-c2nc3ncccc3o2)c1O | 3.76 µM
82 | CCOC(=O)C1=C(COC(=O)c2cc(OC)c(OC)c(OC)c2)NC(=O)NC1C (stereo not drawn) | 5.68 µM
83 | O=CNc1cc(-c2ccc(C(=O)NC3CC3)cc2)cn2c(-c3ccccc3)cnc12 | 10.3 µM (inactive)
84 | COc1ccc(-c2ccc3c(c2)S(=O)(=O)c2cccc(C(=O)N4CCN(c5c(Cl)cncc5Cl)CC4)c2C3=O)cc1OC | 4.27 µM
85 | CC1(c2ccccc2)NC(=O)N(CC(=O)Nc2cccc(/C=C/c3ccccn3)c2)C1=O (stereo not drawn) | 9.76 µM
86 | COc1ccc(CCNc2nc(-c3cccnc3)nc3ccccc23)cc1OC | 2.28 µM
87 | Cc1ncc(CO)c2cc(C(=O)Nc3ccccc3Cl)c(=Nc3cccc(C(N)=O)c3)oc12 | 0.51 µM
88 | Fc1ccc(-n2cc(-c3ccccc3)c3c(N4CCOCC4)ncnc32)cc1 | 6.27 µM
89 | Cc1ccc(-n2cc(-c3ccccc3)c3c(N4CCOCC4)ncnc32)cc1 | 5.98 µM
90 | COc1cc2nc(Nc3ccc(F)cc3)nc(N)c2cc1OC | 4.24 µM
91 | COC(=O)c1ccc2c(=O)[nH]c(COC(=O)c3[nH]c(C)c(C(C)=O)c3C)nc2c1 | 5.29 µM
92 | S=C(Nc1ccc(N2CCOCC2)cc1)Nc1ccc2nc(-c3ccco3)c(-c3ccco3)nc2c1 | 10.7 µM (inactive)
93 | CCCC(=O)Nc1nc2ccc(NC(=O)c3ccc(Br)o3)cc2s1 | 15.2 µM (inactive)
